ChEMBL document CHEMBL1151249, “Cytotoxic and antimicrobial constituents of the bark of Diospyros maritima collected in two geographical locations in Indonesia” (J Nat Prod, 2004)
Values after ≈ are worked out from the molar mass of the structure shown.

What was measured:
KB = experiment: Cytotoxicity against human KB cells; assay type: functional, cell-based
Lu1 = experiment: Cytotoxicity against human Lu1 cells; assay type: functional; conditions: read-out: ED50 (the source's name)
LNCaP = experiment: Cytotoxicity against human LNCAP cells; assay type: functional; conditions: read-out: ED50 (the source's name)
[1] = Cytotoxicity against human HUVEC; assay type: cell-based; conditions: HUVEC cells, read-out: ED50 (the source's name)
Micrococcus luteus [2] = experiment: Antimicrobial activity against Micrococcus luteus after 18 hrs by zone-of-inhibition assay; assay type: functional, organism-based
Micrococcus luteus [3] = experiment: Antimicrobial activity against Micrococcus luteus assessed as 99.9 % growth inhibition after 18 hrs by zone-of-inhibition assay; assay type: functional
Staphylococcus aureus [4] = experiment: Antimicrobial activity against Staphylococcus aureus after 18 hrs by zone-of-inhibition assay; assay type: functional, organism-based
Staphylococcus aureus [5] = experiment: Antimicrobial activity against Staphylococcus aureus assessed as 99.9 % growth inhibition after 18 hrs by zone-of-inhibition assay; assay type: functional
[6] = test system: Mycolicibacterium smegmatis; experiment: Antimicrobial activity against Mycobacterium smegmatis after 18 hrs by zone-of-inhibition assay; assay type: functional, organism-based
[7] = test system: Mycolicibacterium smegmatis; experiment: Antimicrobial activity against Mycobacterium smegmatis assessed as 99.9 % growth inhibition after 18 hrs by zone-of-inhibition assay; assay type: functional
Mycobacterium avium [8] = experiment: Antimicrobial activity against Mycobacterium avium after 18 hrs by zone-of-inhibition assay; assay type: functional, organism-based
Mycobacterium avium [9] = experiment: Antimicrobial activity against Mycobacterium avium assessed as 99.9 % growth inhibition after 18 hrs by zone-of-inhibition assay; assay type: functional
Candida albicans [10] = experiment: Antifungal activity against Candida albicans after 18 hrs by zone-of-inhibition assay; assay type: functional, organism-based; conditions: Candida albicans, 18 h
Cryptococcus neoformans [11] = experiment: Antifungal activity against Cryptococcus neoformans after 18 hrs by zone-of-inhibition assay; assay type: functional, organism-based; conditions: Cryptococcus neoformans, 18 h
Cryptococcus neoformans [12] = experiment: Antifungal activity against Cryptococcus neoformans assessed as 99.9 % growth inhibition after 18 hrs by zone-of-inhibition assay; assay type: functional
Saccharomyces cerevisiae [13] = experiment: Antifungal activity against Saccharomyces cerevisiae after 18 hrs by zone-of-inhibition assay; assay type: functional, organism-based
Saccharomyces cerevisiae [14] = experiment: Antifungal activity against Saccharomyces cerevisiae assessed as 99.9 % growth inhibition after 18 hrs by zone-of-inhibition assay; assay type: functional
Aspergillus niger [15] = experiment: Antifungal activity against Aspergillus niger after 18 hrs by zone-of-inhibition assay; assay type: functional, organism-based
Aspergillus niger [16] = experiment: Antifungal activity against Aspergillus niger assessed as 99.9 % growth inhibition after 18 hrs by zone-of-inhibition assay; assay type: functional
Candida albicans [17] = experiment: Antimicrobial activity against Candida albicans assessed as 99.9 % growth inhibition after 18 hrs by zone-of-inhibition assay; assay type: functional
[18] = read-out: ED50 (the source's name)

| Compound | EC50 (KB; [18]) [µg/mL] | EC50 (Lu1) [µg/mL] | EC50 (LNCaP) [µg/mL] | CC50 [1] [µg/mL] | IC50 (Micrococcus luteus [2]) [µg/mL] | Activity (Micrococcus luteus [3]) [µg/mL] | IC50 (Staphylococcus aureus [4]) [µg/mL] | Activity (Staphylococcus aureus [5]) [µg/mL] | IC50 [6] [µg/mL] | Activity [7] [µg/mL] | IC50 (Mycobacterium avium [8]) [µg/mL] | IC50 (Candida albicans [10]) [µg/mL] | IC50 (Cryptococcus neoformans [11]) [µg/mL] | Activity (Cryptococcus neoformans [12]) [µg/mL] | IC50 (Saccharomyces cerevisiae [13]) [µg/mL] | Activity (Saccharomyces cerevisiae [14]) [µg/mL] | IC50 (Aspergillus niger [15]) [µg/mL] | Activity (Aspergillus niger [16]) [µg/mL] | Activity (Candida albicans [17]) [µg/mL] | also measured |
| --- | --- | --- | --- | --- | --- | --- | --- | --- | --- | --- | --- | --- | --- | --- | --- | --- | --- | --- | --- | --- |
| CC1=CC(=O)c2c(ccc(C3=C(C)C(=O)c4cccc(O)c4C3=O)c2O)C1=O [CHITRANONE] | 0.3 (≈ 0.801 µM) | 1.1 (≈ 2.94 µM) | 2.2 (≈ 5.88 µM) | 2.1 (≈ 5.61 µM) | 10 (≈ 26.7 µM) | >1000 | 90 (≈ 240 µM) | >1000 | 6 (≈ 16 µM) | 20 | 5 (≈ 13.4 µM) | 10 (≈ 26.7 µM) | 3 (≈ 8.01 µM) | 10 | 3 (≈ 8.01 µM) | 10 | 6 (≈ 16 µM) | >1000 | >1000 | Activity (Mycobacterium avium [9]): 90 µg/mL |
| CC[C@@]1(O)C(=O)OCc2c1cc1n(c2=O)Cc2cc3ccccc3nc2-1 [CAMPTOTHECIN] | – | – | – | – | – | – | – | – | – | – | – | – | – | – | – | – | – | – | – | EC50 (KB; read-out: EC50): 0.01 µg/mL (≈ 0.0287 µM) |
| COc1cc2ccc(=O)oc2cc1O [SCOPOLETIN] | > 5 | > 5 | > 5 | > 5 | > 1000 | >1000 | > 1000 | >1000 | > 1000 | >1000 | > 1000 | > 1000 | > 1000 | >1000 | > 1000 | >1000 | > 1000 | >1000 | >1000 | – |
| C=C(C)[C@@H]1CC[C@]2(CO)CC[C@]3(C)[C@H](CC[C@@H]4[C@@]5(C)CC[C@H](O)C(C)(C)[C@@H]5CC[C@]43C)[C@@H]12 [BETULIN] | > 5 | > 5 | > 5 | > 5 | – | – | – | – | – | – | – | – | – | – | – | – | – | – | – | – |
| COc1c(O)cc2ccc(=O)oc2c1OC | > 5 | > 5 | > 5 | > 5 | > 1000 | >1000 | > 1000 | >1000 | > 1000 | >1000 | > 1000 | > 1000 | > 1000 | >1000 | > 1000 | >1000 | > 1000 | >1000 | >1000 | – |
| COC1=CC(=O)c2c(O)cc(C)cc2C1=O | 1.9 (≈ 8.71 µM) | 0.2 (≈ 0.917 µM) | 3.4 (≈ 15.6 µM) | 2 (≈ 9.17 µM) | 50 (≈ 229 µM) | 800 | 200 (≈ 917 µM) | 400 | 50 (≈ 229 µM) | 800 | 50 (≈ 229 µM) | 100 (≈ 458 µM) | 50 (≈ 229 µM) | 200 | 50 (≈ 229 µM) | 200 | 100 (≈ 458 µM) | >1000 | 800 | – |
| CC12C(=O)c3cccc(O)c3C(=O)C1CC1=C2C(=O)c2c(O)cccc2C1=O (stereo unspecified) [ZEYLANONE] | 2.1 (≈ 5.61 µM) | 14.5 (≈ 38.7 µM) | 3.3 (≈ 8.82 µM) | 3.3 (≈ 8.82 µM) | 50 (≈ 134 µM) | >800 | 6 (≈ 16 µM) | >800 | 50 (≈ 134 µM) | 400 | 200 (≈ 534 µM) | 3 (≈ 8.01 µM) | 10 (≈ 26.7 µM) | 100 | 10 (≈ 26.7 µM) | 500 | 30 (≈ 80.1 µM) | >800 | 3 | – |
